According to PMC4089482, “Bacterial periplasmic sialic acid-binding proteins exhibit a conserved binding site” (Acta Crystallographica Section D: Biological Crystallography, 2014):
Entries after “also recorded” stand apart in the source; their conditions may differ.

Columns and labels:
[1] = tested on: V. cholerae O1 biovar eltor strain N16961; assay: Growth-curve experiment in M9 minimal medium with different sugars; assay type: cell-based, Vibrio cholerae; details: M9 minimal medium supplemented with sugar (5 mg ml^−1; all at 5 mM), 37°C
Description: V. cholerae O1 biovar eltor strain N16961 was initially grown on LB agar plates. Subsequently, 3 ml M9 minimal medium supplemented with different sugars (5 mg ml^−1) was inoculated with bacteria at an OD600 of 0.07. These cultures were incubated in a 37°C shaker at 225 rev min^−1. Optical densities at A 600 were measured at various time points using a Spectronic GENESYS 20 Visible Spectrophotometer to observe the growth pattern of V. cholerae in different compounds. The different sugars used were Neu5Ac, Neu5Gc, fetuin (a glycoprotein of foetal serum that contains different sugars and sialic acid; Spiro, 1960[▶]), asialofetuin, galactose, glycerol, D-lactic acid, succinate, sucrose, DL-malic acid and fructose, all at 5 mM concentration. Based on the readings, a graph of OD600 was plotted.

Fn-SiaP = Fn-SiaP (Fusobacterium nucleatum subsp. nucleatum, UniProt Q8RDN9); assay: ITC binding of sialic acids to Fn-SiaP; details: 25°C
Description: (§1) ITC measurements were performed using a MicroCal ITC system (GE Healthcare). The reaction buffer for all of the experiments was 20 mM HEPES pH 8.0, 10 mM NaCl. All titrations were carried out at 25°C. The protein concentration was determined using the Bio-Rad Bradford reagent. The concentrations of SiaP and Neu5Ac/Neu5Gc were varied in the different titrations and each binding experiment was repeated three times. The nonspecific heat released by the dilution of both the sugars and the protein was calculated by averaging the heat liberated during the last 3–5 injections after saturation. This value was then subtracted from the raw heat released during each injection. To derive the stoichiometric values, the data sets were analyzed using a single-site binding model from the Origin ITC analysis software (MicroCal). In this analysis, the values for the stoichiometry, the change in enthalpy (ΔH) and the affinity were fitted using nonlinear least-squares analysis. To derive the values for the affinity, ΔS and ΔH, data sets were globally analyzed using the single-site binding model in SEDPHAT (Vistica et al., 2004[▶]; Dam & Schuck, 2005[▶]).

Pm-SiaP = Pm-SiaP (Pasteurella multocida, UniProt Q9CKB5); assay: ITC binding of sialic acids to Pm-SiaP; details: ITC, 25°C
Description: as §1

Vc-SiaP = molecular target: T1, Vc-SiaP (Vibrio cholerae serotype O1, UniProt Q9KR64); assay: ITC binding of sialic acids to Vc-SiaP; details: 25°C
T1 construct: PCR-amplified using the forward primer 5′-[…]-3′; made in house; host or cells: Escherichia coli BL21 (DE3)
T1 sequence (Q9KR64 23-321): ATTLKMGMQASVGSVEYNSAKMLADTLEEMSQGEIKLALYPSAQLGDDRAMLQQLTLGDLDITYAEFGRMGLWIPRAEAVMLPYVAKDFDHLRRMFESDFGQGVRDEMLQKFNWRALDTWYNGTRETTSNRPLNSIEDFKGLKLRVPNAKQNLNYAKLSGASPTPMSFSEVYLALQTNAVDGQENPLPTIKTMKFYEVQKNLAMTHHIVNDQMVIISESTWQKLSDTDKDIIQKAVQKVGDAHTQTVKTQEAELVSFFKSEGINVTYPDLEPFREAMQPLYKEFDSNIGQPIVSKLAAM
Description: as §1

Fn-SiaP, sequence (Q8RDN9 24-327): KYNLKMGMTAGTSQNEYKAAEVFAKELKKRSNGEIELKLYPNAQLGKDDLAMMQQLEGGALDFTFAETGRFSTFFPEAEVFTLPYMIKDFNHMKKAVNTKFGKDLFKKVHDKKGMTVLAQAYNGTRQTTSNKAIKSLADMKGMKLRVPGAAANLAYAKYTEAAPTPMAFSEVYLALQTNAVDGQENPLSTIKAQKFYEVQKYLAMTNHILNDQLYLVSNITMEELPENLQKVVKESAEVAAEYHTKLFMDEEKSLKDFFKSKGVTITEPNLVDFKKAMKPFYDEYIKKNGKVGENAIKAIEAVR
Pm-SiaP, sequence (Q9CKB5 22-327): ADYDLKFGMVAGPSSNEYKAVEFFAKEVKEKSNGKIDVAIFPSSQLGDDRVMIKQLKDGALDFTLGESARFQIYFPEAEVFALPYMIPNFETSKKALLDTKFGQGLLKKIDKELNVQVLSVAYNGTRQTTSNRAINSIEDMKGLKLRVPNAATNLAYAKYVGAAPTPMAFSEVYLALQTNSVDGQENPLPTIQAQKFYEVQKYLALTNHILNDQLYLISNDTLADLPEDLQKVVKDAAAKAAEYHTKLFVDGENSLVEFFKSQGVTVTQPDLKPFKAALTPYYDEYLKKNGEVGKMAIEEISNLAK

## O=C(O)CC(O)C(=O)O (racemic) [DL-malic acid]
[1]
  growth of V. cholerae in the presence of the compound (OD600): Little growth

## C[C@@H](O)C(=O)O [D-lactic acid]
[1]
  growth of V. cholerae in the presence of the compound (OD600): No growth

## CC(=O)N[C@H]1[C@H]([C@H](O)[C@H](O)CO)OC(C(=O)O)=C[C@@H]1O [Neu5Ac2en, N-acetyl-2,3-dehydro-2-deoxyneuraminic acid]
Fn-SiaP
  interaction measured by ITC: no measurable interaction
Pm-SiaP
  interaction measured by ITC: no measurable interaction
Vc-SiaP
  interaction measured by ITC: no measurable interaction

## O=C(CO)N[C@H]1[C@H]([C@H](O)[C@H](O)CO)OC(O)(C(=O)O)C[C@@H]1O (stereo partly shown) [Neu5Gc]
Fn-SiaP; 20 mM HEPES pH 8.0, 10 mM NaCl
  H (change in enthalpy, ΔH): 12074 calmol^1
  Kd: 45.7 nM
  T S (entropic component): 2059.4 calmol^1
[1]
  growth of V. cholerae in the presence of the compound (OD600): No growth; also recorded: cannot use Neu5Gc as a carbon source
Pm-SiaP; 20 mM HEPES pH 8.0, 10 mM NaCl
  H (change in enthalpy, ΔH): 7469 calmol^1
  T S (entropic component): 2777.3 calmol^1
Pm-SiaP; 20 mM HEPES pH 8.0, 10 mM NaCl, read-out: K d
  Kd: 30.7 nM
Vc-SiaP; 20 mM HEPES pH 8.0, 10 mM NaCl
  H (change in enthalpy, ΔH): 5200 calmol^1
  Kd: 1090 nM
  T S (entropic component): 1127.6 calmol^1

## O=C(CO)[C@@H](O)[C@H](O)[C@H](O)CO [fructose]
[1]
  growth of V. cholerae in the presence of the compound (OD600): Little growth

## O=C[C@H](O)[C@@H](O)[C@@H](O)[C@H](O)CO [galactose]
[1]
  growth of V. cholerae in the presence of the compound (OD600): No growth

## OCC(O)CO [glycerol]
[1]
  growth of V. cholerae in the presence of the compound (OD600): No growth

## O=C(O)CCC(=O)O [succinate]
[1]
  growth of V. cholerae in the presence of the compound (OD600): Little growth

## OC[C@H]1O[C@@](CO)(O[C@H]2O[C@H](CO)[C@@H](O)[C@H](O)[C@H]2O)[C@@H](O)[C@@H]1O [sucrose]
[1]
  growth of V. cholerae in the presence of the compound (OD600): Little growth

B1: fetuin: a glycoprotein of foetal serum that contains different sugars and sialic acid (protein, UniProt P12763 19-359, looked up)
Alpha-2-HS-glycoprotein: IPLDPVAGYKEPACDDPDTEQAALAAVDYINKHLPRGYKHTLNQIDSVKVWPRRPTGEVYDIEIDTLETTCHVLDPTPLANCSVRQQTQHAVEGDCDIHVLKQDGQFSVLFTKCDSSPDSAEDVRKLCPDCPLLAPLNDSRVVHAVEVALATFNAESNGSYLQLVEISRAQFVPLPVSVSVEFAVAATDCIAKEVVDPTKCNLLAEKQYGFCKGSVIQKALGGEDVRVTCTLFQTQPVIPQPQPDGAEAEAPSAVPDAAGPTPSAAGPPVASVVVGPSVVAVPLPLHRAHYDLRHTFSGVASVESSSGEAFHVGKTPIVGQPSIPGGPVRLCPGRIRYFKI
[1]
  growth of V. cholerae in the presence of the compound (OD600): grows

B2: asialofetunin: asialofetuin, used as a carbon source in the growth experiment (protein, UniProt P12763 19-359, looked up)
Alpha-2-HS-glycoprotein: IPLDPVAGYKEPACDDPDTEQAALAAVDYINKHLPRGYKHTLNQIDSVKVWPRRPTGEVYDIEIDTLETTCHVLDPTPLANCSVRQQTQHAVEGDCDIHVLKQDGQFSVLFTKCDSSPDSAEDVRKLCPDCPLLAPLNDSRVVHAVEVALATFNAESNGSYLQLVEISRAQFVPLPVSVSVEFAVAATDCIAKEVVDPTKCNLLAEKQYGFCKGSVIQKALGGEDVRVTCTLFQTQPVIPQPQPDGAEAEAPSAVPDAAGPTPSAAGPPVASVVVGPSVVAVPLPLHRAHYDLRHTFSGVASVESSSGEAFHVGKTPIVGQPSIPGGPVRLCPGRIRYFKI
modifications: desialylated
notes: asialofetuin, used as a carbon source in the growth experiment
[1]
  growth of V. cholerae in the presence of the compound (OD600): No growth
